Source: patent publication US9833497B2, “Human originated EGF domain proteins and use of the same” (CHENGDU SOURCEBIO LIMITED-LIABILITY COMPANY, priority 2013, dated 2017)

How the values were obtained:
Format in all cases: cell-based
Proteus vulgaris = assay: MIC against Gram-negative bacteria: Proteus vulgaris; conditions: 10 h cultivation at 37° C.; for MIC against P. vulgaris: Proteus vulgaris
In short: (§1)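 LB broth cultures at McFarland 0.5, spun down, resuspended, diluted to 5×10^5 CFU/mL final. Two-fold serial dilutions of purified human EGF domain proteins, triplicate. 37° C, 175 rpm shaking. Endpoint: no visible growth.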

E. coli BL21 = assay: MIC against Gram-negative bacteria: E. coli BL21; conditions: E. coli BL21, 10 h cultivation at 37° C.
In short: as §1

Pseudomonas aeruginosa = assay: MIC against Gram-negative bacteria: Pseudomonas aeruginosa; conditions: 10 h cultivation at 37° C.; for MIC against P. aeruginosa: Pseudomonas aeruginosa
In short: as §1

Serratia marcescens = assay: MIC against Gram-negative bacteria: Serratia marcescens; conditions: 10 h cultivation at 37° C.; for MIC against S. marcescens: Serratia marcescens
In short: as §1

Klebsiella pneumonia = assay: MIC against Gram-negative bacteria: Klebsiella pneumonia; conditions: 10 h cultivation at 37° C.; for MIC against K. pneumonia: Klebsiella pneumonia
In short: as §1

Enterobacter cloacae = assay: MIC against Gram-negative bacteria: Enterobacter cloacae; conditions: 10 h cultivation at 37° C.; for MIC against E. cloacae: Enterobacter cloacae
In short: as §1

Moraxella catarrhalis = assay: MIC against Gram-negative bacteria: Moraxella catarrhalis; conditions: 10 h cultivation at 37° C.; for MIC against M. catarrhalis: Moraxella catarrhalis
In short: as §1

Citrobacter diversus = assay: MIC against Gram-negative bacteria: Citrobacter diversus; conditions: 10 h cultivation at 37° C.; for MIC against C. diversus: Citrobacter diversus
In short: as §1

Proteus mirabilis = assay: MIC against Gram-negative bacteria: Proteus mirabilis; conditions: 10 h cultivation at 37° C.; for MIC against P. mirabilis: Proteus mirabilis
In short: as §1

E. coli DH5α = assay: Antibacterial activity: MIC and growth curve against E. coli DH5α in 96-well plate; conditions: minimal inhibitory concentration against E. coli DH5α; 96-well plate, 5×10^5 CFU/mL, 37° C., judged after 8 h
In short: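 Log-phase DH5α (OD600 about 0.5, 37° C, 185 rpm in LB) was pelleted, resuspended in fresh LB and seeded at 5×10^5 CFU/mL with recombinant protein at 50, 25 and 12.5 μg/mL (two-fold series), in triplicate. Plates were shaken at 175 rpm, 37° C, and OD600 was read every 30 min. MIC was the lowest concentration with no growth.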

Aeromonas hydrophila = assay: MIC against Gram-negative bacteria: Aeromonas hydrophila; conditions: 10 h cultivation at 37° C.; for MIC against A. hydrophila: Aeromonas hydrophila
In short: as §1

Row | Substance | MIC (Proteus vulgaris; P. vulgaris) | MIC (E. coli BL21) | MIC (Pseudomonas aeruginosa; P. aeruginosa) | MIC (Serratia marcescens; S. marcescens) | MIC (Klebsiella pneumonia; K. pneumonia) | MIC (Enterobacter cloacae; E. cloacae) | MIC (Moraxella catarrhalis; M. catarrhalis) | MIC (Citrobacter diversus; C. diversus) | MIC (Proteus mirabilis; P. mirabilis) | MIC (E. coli DH5α) | MIC (Aeromonas hydrophila; A. hydrophila) | MIC against P. vulgaris (Proteus vulgaris; 5×10^5 CFU/mL) | MIC against E. coli BL21 (E. coli BL21; 5×10^5 CFU/mL) | MIC against P. aeruginosa (Pseudomonas aeruginosa; 5×10^5 CFU/mL) | MIC against S. marcescens (Serratia marcescens; 5×10^5 CFU/mL) | MIC against K. pneumonia (Klebsiella pneumonia; 5×10^5 CFU/mL) | MIC against E. cloacae (Enterobacter cloacae; 5×10^5 CFU/mL) | MIC against M. catarrhalis (Moraxella catarrhalis; 5×10^5 CFU/mL) | MIC against C. diversus (Citrobacter diversus; 5×10^5 CFU/mL) | MIC against P. mirabilis (Proteus mirabilis; 5×10^5 CFU/mL) | other results
1 | PRT928 (NIDNCDPDPCHHGQCQDGIDSYTCICNPGYMGAICS; listed as Homo sapiens) | 25 µg/mL | 12.5 µg/mL | 25 µg/mL | 25 µg/mL | 12.5 µg/mL | 25 µg/mL | 12.5 µg/mL | 25 µg/mL | 12.5 µg/mL | 25 µg/mL | 12.5 µg/mL | – | – | – | – | – | – | – | – | – | –
2 | PRT433 (DIDECRYGYCQQLCANVPGSYSCTCNPGFTLNEDGRSCQ; listed as Homo sapiens) | – | – | – | – | – | – | – | – | – | 12.5 µg/mL | – | – | – | – | – | – | – | – | – | – | MIC (Proteus vulgaris; P. vulgaris, 5×10^5 CFU/mL): 12.5 µg/mL; MIC (E. coli BL21; 5×10^5 CFU/mL): 25 µg/mL; MIC (Pseudomonas aeruginosa; P. aeruginosa, 5×10^5 CFU/mL): 12.5 µg/mL; MIC (Serratia marcescens; S. marcescens, 5×10^5 CFU/mL): 50 µg/mL; MIC (Klebsiella pneumonia; K. pneumonia, 5×10^5 CFU/mL): 12.5 µg/mL; MIC (Enterobacter cloacae; E. cloacae, 5×10^5 CFU/mL): 50 µg/mL; MIC (Moraxella catarrhalis; M. catarrhalis, 5×10^5 CFU/mL): 12.5 µg/mL; MIC (Citrobacter diversus; C. diversus, 5×10^5 CFU/mL): 50 µg/mL; MIC (Proteus mirabilis; P. mirabilis, 5×10^5 CFU/mL): 50 µg/mL; MIC (Aeromonas hydrophila; A. hydrophila, 5×10^5 CFU/mL): 12.5 µg/mL
3 | PRT1458 (CNCHLSGALNETCHLVTGQCFCKQFVTGSKCDACVPSASHLDVNNLLGCSK; listed as Homo sapiens) | – | – | – | – | – | – | – | – | – | 12.5 µg/mL | – | 25 µg/mL | 12.5 µg/mL | 25 µg/mL | 50 µg/mL | 12.5 µg/mL | 25 µg/mL | 25 µg/mL | 25 µg/mL | 12.5 µg/mL | MIC against A. hydrophila (Aeromonas hydrophila; 5×10^5 CFU/mL): 50 µg/mL
4 | PRT145 (DVNECEIYSGTPLSCQNGGTCVNTMGSYSCHCPPETYGPQCA; listed as Homo sapiens) | – | – | – | – | – | – | – | – | – | 12.5 µg/mL | – | – | – | – | – | – | – | – | – | – | MIC (μg/mL) P. vulgaris (Proteus vulgaris; P. vulgaris, 5×10^5 CFU/mL): 12.5 µg/mL; MIC (μg/mL) E. coli BL21 (E. coli BL21; 5×10^5 CFU/mL): 12.5 µg/mL; MIC (μg/mL) P. aeruginosa (Pseudomonas aeruginosa; P. aeruginosa, 5×10^5 CFU/mL): 12.5 µg/mL; MIC (μg/mL) S. marcescens (Serratia marcescens; S. marcescens, 5×10^5 CFU/mL): 25 µg/mL; MIC (μg/mL) K. pneumonia (Klebsiella pneumonia; K. pneumonia, 5×10^5 CFU/mL): 12.5 µg/mL; MIC (μg/mL) E. cloacae (Enterobacter cloacae; E. cloacae, 5×10^5 CFU/mL): 12.5 µg/mL; MIC (μg/mL) M. catarrhalis (Moraxella catarrhalis; M. catarrhalis, 5×10^5 CFU/mL): 12.5 µg/mL; MIC (μg/mL) C. diversus (Citrobacter diversus; C. diversus, 5×10^5 CFU/mL): 12.5 µg/mL; MIC (μg/mL) P. mirabilis (Proteus mirabilis; P. mirabilis, 5×10^5 CFU/mL): 25 µg/mL; MIC (μg/mL) A. hydrophila (Aeromonas hydrophila; A. hydrophila, 5×10^5 CFU/mL): 12.5 µg/mL
5 | PRT958 (DVDECSIGANPCEHLGRCVNTQGSFLCQCGRGYTGPRCE; listed as Homo sapiens) | 12.5 µg/mL | 12.5 µg/mL | 25 µg/mL | 25 µg/mL | 50 µg/mL | 25 µg/mL | 50 µg/mL | 12.5 µg/mL | 25 µg/mL | 50 µg/mL | 25 µg/mL | – | – | – | – | – | – | – | – | – | –
6 | PRT1395 (DCPRNCHGNGECVSGVCHCFPGFLGADCA; listed as Homo sapiens) | – | – | – | – | – | – | – | – | – | 12.5 µg/mL | – | 12.5 µg/mL | 25 µg/mL | 12.5 µg/mL | 25 µg/mL | 25 µg/mL | 12.5 µg/mL | 12.5 µg/mL | 12.5 µg/mL | 12.5 µg/mL | MIC against A. hydrophila (Aeromonas hydrophila; 5×10^5 CFU/mL): 100 µg/mL
